Reference: patent US20120029041A1, “2-ARYL IMIDAZOLINE DERIVATIVES” (MSD K.K., priority 2009, published 2012)
pIC50: −log10 of the molar value.

Molecular target: T1, human QRFP receptor (GPR103) (Homo sapiens, UniProt Q96P65)
T1 construct: expressed in transfected cells; host or cells: NFAT β-Lactamase CHO-K1 host cells (Aurora); membrane specimen
T1 sequence (Q96P65 1-431): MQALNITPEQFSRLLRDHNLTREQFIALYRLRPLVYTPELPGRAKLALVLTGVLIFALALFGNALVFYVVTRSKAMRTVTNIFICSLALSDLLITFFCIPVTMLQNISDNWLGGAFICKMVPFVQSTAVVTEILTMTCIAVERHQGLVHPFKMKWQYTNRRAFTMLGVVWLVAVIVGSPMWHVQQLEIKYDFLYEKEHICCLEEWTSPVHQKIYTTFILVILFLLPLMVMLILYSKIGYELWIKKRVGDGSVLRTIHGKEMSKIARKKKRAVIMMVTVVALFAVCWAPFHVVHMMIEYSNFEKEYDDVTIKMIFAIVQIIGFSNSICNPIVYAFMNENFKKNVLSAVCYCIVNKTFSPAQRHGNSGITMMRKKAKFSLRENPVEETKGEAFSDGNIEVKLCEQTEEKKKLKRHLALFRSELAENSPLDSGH
Test: QRFP43 Binding Inhibition Test
Settings: membrane specimen from GPR103 expressing CHO-K1 cells, [125I] QRFP43, 25° C., 1 hour; read-out: IC50 for the specific [125I] QRFP43 binding
Excerpt: The cDNA sequence [Accession No. NM_198179] that codes for human QRFP receptor (GPR103) was cloned into an expression vector pEF1V5-HisB (Invitrogen). The expression vector so prepared was transfected into NFAT [β-Lactamase CHO-K1 host cells (Aurora) to obtain QRFP receptor (GPR103) expressing cells, using the cationic lipid method [see Proceedings of the National Academy of Sciences of the United States of America, Vol. 84, p. 7413 (1987)].
The membrane specimen prepared from the QRFP receptor (GPR103) expressing cells was incubated at 25° C. for 1 hour with a test compound and 20,000 cpm [^125I] QRFP43 (PerkinElmer, Inc.) in an assay buffer (50 mM Tris-HCl, 1 mM EDTA, and 0.1% BSA, pH 7.4), followed by filtration using a glass filter GF/C. After washing with a 50 mM Tris-HCl (containing 2 mM EDTA, 10 mM MgCl2, and 0.04% Tween-20) buffer at pH 7.4, the radioactivity on the glass filter was determined using a gamma counter. Non-specific binding was measured in the presence of 1 μM peptide QRFP43, and 50% inhibition concentration (IC50 value) of the test compound for the specific [^125I] QRFP43 binding was determined [see Endocrinology, Vol. 131, p. 2090 (1992)].

pIC50 | SMILES
7.77 | Clc1ccc(C2=NCCN2C(c2ccccc2)c2ccccc2)cc1 [Example 2, 2-(4-Chlorophenyl)-1-(diphenylmethyl)-4,5-dihydro-1H-imidazole]
7.96 | COc1ccc(C2=NCCN2C(c2ccccc2)c2ccccc2)cc1 [Example 6, 1-(Diphenylmethyl)-2-(4-methoxyphenyl)-4,5-dihydro-1H-imidazole]
7.43 | Cc1ccc(C2=NCCN2C(c2ccccc2)c2ccccc2)cc1 [Example 5, 1-(Diphenylmethyl)-2-(4-methylphenyl)-4,5-dihydro-1H-imidazole]
